Results published in patent publication US10196374B2 (AstraZeneca AB, priority 2014, dated 2019).

Tests used:
[1] = molecular target: T1, human glucocorticoid receptor (GR) (Homo sapiens (Human), UniProt P04150); test: GRE Agonist Assay (ChagoK1 18:7:2 s4/GRE MMTV-GRE-LacZ reporter cell line); format: cell-based; details: for Emax at 1 µM: ChaGo-K-1, relative to full agonist effect of dexamethasone, read-out: TA agonist Observed max Effect at 1 μM (%); for TA agonist pEC50: transactivation in agonist mode, ChagoK1 GRE-LacZ reporter cells, 24 hours
T1 sequence (P04150 whole entry): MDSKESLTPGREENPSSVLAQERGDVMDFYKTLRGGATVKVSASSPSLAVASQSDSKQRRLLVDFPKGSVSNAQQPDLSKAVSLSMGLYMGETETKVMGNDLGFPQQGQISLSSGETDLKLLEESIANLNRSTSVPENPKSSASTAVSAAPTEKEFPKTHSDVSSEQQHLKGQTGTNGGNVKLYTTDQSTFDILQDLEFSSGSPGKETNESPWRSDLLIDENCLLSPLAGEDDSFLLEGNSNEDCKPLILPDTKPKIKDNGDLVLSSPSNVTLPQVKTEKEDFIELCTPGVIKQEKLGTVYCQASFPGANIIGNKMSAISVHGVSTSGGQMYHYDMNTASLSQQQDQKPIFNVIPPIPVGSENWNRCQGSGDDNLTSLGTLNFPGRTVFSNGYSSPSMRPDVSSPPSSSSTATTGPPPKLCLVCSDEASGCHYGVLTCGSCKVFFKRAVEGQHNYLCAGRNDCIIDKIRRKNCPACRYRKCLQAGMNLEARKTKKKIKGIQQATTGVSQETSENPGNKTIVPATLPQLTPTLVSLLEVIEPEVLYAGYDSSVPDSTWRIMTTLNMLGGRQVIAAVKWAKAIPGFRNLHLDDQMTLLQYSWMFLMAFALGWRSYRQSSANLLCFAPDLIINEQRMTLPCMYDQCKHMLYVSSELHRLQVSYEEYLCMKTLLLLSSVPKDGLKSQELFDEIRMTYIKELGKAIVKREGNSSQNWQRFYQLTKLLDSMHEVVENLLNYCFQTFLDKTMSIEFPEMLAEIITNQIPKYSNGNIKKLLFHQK
Source text: GRE Agonist Assay A reporter cell line (ChagoK1 18:7:2 s4/GRE) was established by stable transfection of the human bronchogenic carcinoma cell line, ChaGo K1 (ATCC: HTB 168) with a MMTV-GRE-LacZ reporter construct. The generated cell line allows for identification of compounds showing agonist activity at the human glucocorticoid receptor (GR) via induction of LacZ gene expression. Ligand-activated GR binds to the Glucocorticoid Response Element (GRE) in the promoter of the LacZ gene and transcription is initiated. The resulting beta-galactosidase activity is measured through a colour reaction (change in absorbance). Cryo-preserved ChagoK1 18:7:2 s4/GRE cells were suspended in RPMI medium with 10% FBS, 1% NEAA and 1% sodium pyruvate, and seeded as 50000 cells/200 ul/well in 96-well plates and cultured at 37° C. with 5% CO2 and 95% humidity for 24 hours. 1 μl compound was added at different concentrations to the cells and incubated for another 24 hours. […] The reaction was then terminated by addition of 100 μl stop solution (300 mM glycine, 15 mM EDTA, pH 11.3, adjusted with NaOH). […]) Where A=min Y, B=max Y, C=log EC50 and D=Slope factor

[2] = molecular target: T1, human glucocorticoid receptor (GR); test: GRE Antagonist Assay (ChagoK1 18:7:2 s4/GRE reporter cells pre-stimulated with dexamethasone); format: cell-based; details: for Emax at 1 µM: ChaGo-K-1, relative to full antagonist effect of Mifepristone (RU486), read-out: TA antagonist Observed max Effect at 1 μM (%); for TA antagonist pIC50: transactivation in antagonist mode, pre-stimulated with dexamethasone 70 nM
Source text: GRE Antagonist Assay A reporter cell line (ChagoK1 18:7:2 s4/GRE) was established by stable transfection of the human bronchogenic carcinoma celline, ChaGo K1 (ATCC: HTB 168) with a MMTV-GRE-LacZ reporter construct. The generated cell line allows for identification of compounds showing antagonist activity at the human glucocorticoid receptor (GR) via reduction of LacZ gene expression. Dexamethasone-activated GR binds to the Glucocorticoid Response Element (GRE) in the promoter of the LacZ gene and transcription is initiated. Antagonistic properties of compounds are assessed as beta-galactosidase intensity reduction from pre-stimulation with dexamethasone through a colour reaction (change in absorbance). Cryo-preserved ChagoK1 18:7:2 s4/GRE cells were suspended in RPMI medium with 10% FBS, 1% NEAA and 1% sodium pyruvate, and seeded as 50000 cells/200 ul/well in 96-well plates and cultured at 37° C. with 5% CO2 and 95% humidity for 24 hr. […] The reaction was then terminated by addition of 100 μl stop solution (300 mM glycine, 15 mM EDTA, pH 11.3, adjusted with NaOH). The plates were measured at 420 nm for absorbance in a SpectraMax reader (Molecular Device). […]) Where A=min Y, B=max Y, C=log IC50 and D=Slope factor

| Emax at 1 µM [1] [%] | TA agonist pEC50 [1] | Emax at 1 µM [2] [%] | TA antagonist pIC50 [2] | Structure (SMILES) |
| --- | --- | --- | --- | --- |
| 46 | 8.4 | 48 | 7.1 | Cc1cc2c(cnn2-c2ccc(=O)n(C)c2)cc1O[C@H](c1ccccc1)[C@@H](NC(=O)C(C)(F)F)C(C)C [Example 12, 2,2-difluoro-N-[(1R,2S)-3-methyl-1-{[6-methyl-1-(1-methyl-6-oxo-1,6-dihydropyridin-3-yl)-1H-indazol-5-yl]oxy}-1-phenylbutan-2-yl]propanamide] |
| 20 | 8.0 | 75 | 6.6 | CC(C)[C@H](NC(=O)C(F)(F)F)[C@H](Oc1ccc2c(cnn2-c2ccc(=O)n(C)c2)c1)c1ccc(OC(F)F)cc1 [Example 16, N-[(1R,2S)-1-[4-(difluoromethoxy)phenyl]-3-methyl-1-{[1-(1-methyl-6-oxo-1,6-dihydropyridin-3-yl)-1H-indazol-5-yl]oxy}butan-2-yl]-2,2,2-trifluoroacetamide] |
| 32 | 8.8 | 61 | 7.6 | CC(C)[C@H](NC(=O)C(F)(F)F)[C@H](Oc1ccc2c(cnn2-c2ccc(=O)n(C)c2)c1)c1cc(F)cc(Cl)c1 [Example 18, N-[(1R,2S)-1-[3-chloro-5-fluorophenyl]-3-methyl-1-{[1-(1-methyl-6-oxo-1,6-dihydropyridin-3-yl)-1H-indazol-5-yl]oxy}butan-2-yl]-2,2,2-trifluoroacetamide] |
| 28 | 8.1 | 62 | 6.7 | CC(C)[C@H](NC(=O)C(C)(F)F)[C@H](Oc1ccc2c(cnn2-c2ccc(=O)n(C)c2)c1)c1ccc(OC(F)F)cc1 [Example 11, N-[(1R,2S)-1-[4-(difluoromethoxy)phenyl]-3-methyl-1-{[1-(1-methyl-6-oxo-1,6-dihydropyridin-3-yl)-1H-indazol-5-yl]oxy}butan-2-yl]-2,2-difluoropropanamide] |
| 14 | 7.6 | 70 | 6.4 | CCn1cc(-n2ncc3cc(O[C@H](c4ccccc4)[C@@H](NC(=O)C(C)(F)F)C(C)C)ccc32)ccc1=O [Example 23, N-[(1R,2S)-1-{[1-(1-ethyl-6-oxo-1,6-dihydropyridin-3-yl)-1H-indazol-5-yl]oxy}-3-methyl-1-phenylbutan-2-yl]-2,2-difluoropropanamide] |
| 28 | 8.6 | 72 | 6.7 | CC(C)[C@H](NC(=O)C(C)(F)F)[C@H](Oc1ccc2c(cnn2-c2ccc(=O)n(C)c2)c1)c1cccc(Cl)c1 [Example 5, N-[(1R,2S)-1-(3-chlorophenyl)-3-methyl-1-{[1-(1-methyl-6-oxo-1,6-dihydropyridin-3-yl)-1H-indazol-5-yl]oxy}butan-2-yl]-2,2-difluoropropanamide] |
| 42 | 8.3 | 48 | 7.3 | CC(C)[C@H](NC(=O)C(C)(F)F)[C@H](Oc1cc2cnn(-c3ccc(=O)n(C)c3)c2cc1Cl)c1ccccc1 [Example 21, N-[(1R,2S)-1-{[6-chloro-1-(1-methyl-6-oxo-1,6-dihydropyridin-3-yl)-1H-indazol-5-yl]oxy}-3-methyl-1-phenylbutan-2-yl]-2,2-difluoropropanamide] |
| 22 | 7.7 | 63 | 6.9 | CC(C)[C@H](NC(=O)C(C)(F)F)[C@H](Oc1ccc2c(cnn2-c2ccc(=O)n(C)c2)c1)c1ccc(OC(F)(F)F)cc1 [Example 9, 2,2-difluoro-N-{(1R,2S)-3-methyl-1-{[1-(1-methyl-6-oxo-1,6-dihydropyridin-3-yl)-1H-indazol-5-yl]oxy}-1-[4-(trifluoromethoxy)phenyl]butan-2-yl}propanamide] |
| 25 | – | 67 | – | CC(C)[C@H](NC(=O)C(F)(F)F)[C@H](Oc1ccc2c(cnn2-c2ccc(=O)n(C)c2)c1)c1ccccc1 [Example 2, 2,2,2-trifluoro-N-[(1R,2S)-3-methyl-1-{[1-(1-methyl-6-oxo-1,6-dihydropyridin-3-yl)-1H-indazol-5-yl]oxy}-1-phenylbutan-2-yl]acetamide] |
| 38 | 8.5 | 58 | 7.6 | CC(C)[C@H](NC(=O)C(C)(F)F)[C@H](Oc1ccc2c(cnn2-c2ccc(=O)n(C)c2)c1)c1cc(F)cc(Cl)c1 [Example 19, N-[(1R,2S)-1-(3-chloro-5-fluorophenyl)-3-methyl-1-{[1-(1-methyl-6-oxo-1,6-dihydropyridin-3-yl)-1H-indazol-5-yl]oxy}butan-2-yl]-2,2-difluoropropanamide] |
| 40 | 8.1 | 51 | 7.0 | CC(C)[C@H](NC(=O)C(C)(F)F)[C@H](Oc1ccc2c(cnn2-c2ccc(=O)n(C)c2)c1)c1ccc(C(F)(F)F)cc1 [Example 10, 2,2-difluoro-N-{(1R,2S)-3-methyl-1-{[1-(1-methyl-6-oxo-1,6-dihydropyridin-3-yl)-1H-indazol-5-yl]oxy}-1-[4-(trifluoromethyl)phenyl]butan-2-yl}propanamide] |
| 28 | 8.3 | 72 | 6.9 | CC(C)[C@H](NC(=O)C(F)(F)F)[C@H](Oc1ccc2c(cnn2-c2ccc(=O)n(C)c2)c1)c1ccc(Cl)cc1 [Example 13, N-[(1R,2S)-1-(4-chlorophenyl)-3-methyl-1-{[1-(1-methyl-6-oxo-1,6-dihydropyridin-3-yl)-1H-indazol-5-yl]oxy}butan-2-yl]-2,2,2-trifluoroacetamide] |
| 36 | 7.7 | 56 | 6.8 | CC(C)[C@H](NC(=O)C(C)(F)F)[C@H](Oc1ccc2c(cnn2-c2ccc(=O)n(C)c2)c1)c1cc(Cl)cc(Cl)c1 [Example 8, N-[(1R,2S)-1-(3,5-dichlorophenyl)-3-methyl-1-{[1-(1-methyl-6-oxo-1,6-dihydropyridin-3-yl)-1H-indazol-5-yl]oxy}butan-2-yl]-2,2-difluoropropanamide] |
| 20 | 7.7 | 65 | 6.9 | CC(C)[C@H](NC(=O)C(F)(F)F)[C@H](Oc1ccc2c(cnn2-c2ccc(=O)n(C)c2)c1)c1cc(Cl)cc(Cl)c1 [Example 14, N-[(1R,2S)-1-(3,5-dichlorophenyl)-3-methyl-1-{[1-(1-methyl-6-oxo-1,6-dihydropyridin-3-yl)-1H-indazol-5-yl]oxy}butan-2-yl]-2,2,2-trifluoroacetamide] |
| 46 | 8.1 | 54 | 7.1 | CC(C)[C@H](NC(=O)C(C)(F)F)[C@H](Oc1ccc2c(cnn2-c2ccc(=O)n(C)c2)c1)c1ccc(Cl)cc1 [Example 7, N-[(1R,2S)-1-(4-chlorophenyl)-3-methyl-1-{[1-(1-methyl-6-oxo-1,6-dihydropyridin-3-yl)-1H-indazol-5-yl]oxy}butan-2-yl]-2,2-difluoropropanamide] |
| 32 | 8.4 | 79 | 7.4 | CC(C)[C@H](NC(=O)C(F)(F)F)[C@H](Oc1ccc2c(cnn2-c2ccc(=O)n(C)c2)c1)c1ccc(Cl)c(F)c1 [Example 17, N-[(1R,2S)-1-(4-chloro-3-fluorophenyl)-3-methyl-1-{[1-(1-methyl-6-oxo-1,6-dihydropyridin-3-yl)-1H-indazol-5-yl]oxy}butan-2-yl]-2,2,2-trifluoroacetamide] |
| 27 | 8.2 | 64 | 7.3 | CC(C)[C@H](NC(=O)C(F)(F)F)[C@H](Oc1ccc2c(cnn2-c2ccc(=O)n(C)c2)c1)c1ccc(C(F)(F)F)cc1 [Example 15, 2,2,2-trifluoro-N-{(1R,2S)-3-methyl-1-{[1-(1-methyl-6-oxo-1,6-dihydropyridin-3-yl)-1H-indazol-5-yl]oxy}-1-[4-(trifluoromethyl)phenyl]butan-2-yl}acetamide] |
